Like-named read-outs stand apart in the source and are kept apart here. Non-standard residues stand in square brackets, D forms with d. Residues, ends and D or L forms follow the SMILES beside them.
Columns and labels:
[1] = system: HIV-1; settings: H9 cells
Experimental: Compounds (a), (b), (c), (d) were tested in the molarity range from 0.1 μM to 1000 μM. Infectivity tests were carried out as follows: an HIV-1 suspension containing 10^2 infectious units was absorbed on to 5×10^6 H9 cells in a volume of 1 ml for 2 hours at 4° C. After this time, 9 ml of tissue culture medium with the required inhibitor concentration was added. The medium was exchanged with fresh medium plus inhibitor daily. Two control cultures were also prepared, one without inhibitor to determine the normal virus replication rate, the other containing inhibitor but no virus, to determine whether the substances were cytotoxic for H9 cells. […] The amount of virus antigen produced by the infected cells was measured daily using Elisa for eight days, indicating the amount of HIV-1 antigen in the tissue culture medium. After this, the cells were pelleted, washed in medium without inhibitor, and further incubated in inhibitor-less medium. The antigen production was measured on days 9 and 12 (ie 1 and […] after removal of the inhibitor). Virus production was also measured on days 7, 8, 9, and 12 by determining the amount of reverse transcriptase in the supernatant of the cell medium.

[2] = system: HIV-1
Experimental: Infectivity tests were carried out as follows: an HIV-1 suspension containing 10^2 infectious units was absorbed on to 5×10^6 H9 cells in a volume of 1 ml for 2 hours at 4° C. After this time, 9 ml of tissue culture medium with the required inhibitor concentration was added. The medium was exchanged with fresh medium plus inhibitor daily. Two control cultures were also prepared, one without inhibitor to determine the normal virus replication rate, the other containing inhibitor but no virus, to determine whether the substances were cytotoxic for H9 cells. […] The amount of virus antigen produced by the infected cells was measured daily using Elisa for eight days, indicating the amount of HIV-1 antigen in the tissue culture medium. After this, the cells were pelleted, washed in medium without inhibitor, and further incubated in inhibitor-less medium. The antigen production was measured on days 9 and 12 (ie 1 and 3 days after removal of the inhibitor). Virus production was also measured on days 7, 8, 9, and 12 by determining the amount of reverse transcriptase in the supernatant of the cell medium.

[3] = 0,1 μM, day 9 post infection, no inhibitor (after removal)
[4] = 0,1 μM, day 12 post infection, no inhibitor (after removal)
[5] = 1 μM, day 9 post infection, no inhibitor (after removal)
[6] = 1 μM, day 12 post infection, no inhibitor (after removal)
[7] = 10 μM, day 9 post infection, no inhibitor (after removal)
[8] = 10 μM, day 12 post infection, no inhibitor (after removal)
[9] = 100 μM, day 9 post infection, no inhibitor (after removal)
[10] = 100 μM, day 12 post infection, no inhibitor (after removal)
[11] = 1000 μM, day 9 post infection, no inhibitor (after removal)
[12] = 1000 μM, day 12 post infection, no inhibitor (after removal)

CC(C)C[C@@H](NC(=O)[C@H](N)CC(N)=O)C(=O)N[C@@H](C(=O)NCC(=O)O)[C@H](C)O [A, H-(D)-Asn-(D)-Leu-(D)-Thr-Gly-OH] (H-[dN][dL][dT]G-OH)
HIV-1 antigen production as measured in antigen capture ELISA ([1]; 0,1 μM, day 1 post infection): 0,060 o. D. | HIV-1 antigen production as measured in antigen capture ELISA ([1]; 0,1 μM, day 2 post infection): 0,066 o. D. | HIV-1 antigen production as measured in antigen capture ELISA ([1]; 0,1 μM, day 3 post infection): 0,062 o. D. | HIV-1 antigen production as measured in antigen capture ELISA ([1]; 0,1 μM, day 4 post infection): 0,055 o. D. | HIV-1 antigen production as measured in antigen capture ELISA ([1]; 0,1 μM, day 5 post infection): 0,058 o. D. | HIV-1 antigen production as measured in antigen capture ELISA ([1]; 0,1 μM, day 6 post infection): 0,181 o. D. | HIV-1 antigen production as measured in antigen capture ELISA ([1]; 0,1 μM, day 7 post infection): 0,363 o. D. | HIV-1 antigen production as measured in antigen capture ELISA ([1]; 0,1 μM, day 8 post infection): 0,478 o. D. | HIV-1 antigen production as measured in antigen capture ELISA [1, 3]: 0,737 o. D. | HIV-1 antigen production as measured in antigen capture ELISA [1, 4]: 1,037 o. D. | HIV-1 antigen production as measured in antigen capture ELISA ([1]; 1 μM, day 1 post infection): 0,064 o. D. | HIV-1 antigen production as measured in antigen capture ELISA ([1]; 1 μM, day 2 post infection): 0,060 o. D. | HIV-1 antigen production as measured in antigen capture ELISA ([1]; 1 μM, day 3 post infection): 0,075 o. D. | HIV-1 antigen production as measured in antigen capture ELISA ([1]; 1 μM, day 4 post infection): 0,057 o. D. | HIV-1 antigen production as measured in antigen capture ELISA ([1]; 1 μM, day 5 post infection): 0,053 o. D. | HIV-1 antigen production as measured in antigen capture ELISA ([1]; 1 μM, day 6 post infection): 0,136 o. D. | HIV-1 antigen production as measured in antigen capture ELISA ([1]; 1 μM, day 7 post infection): 0,213 o. D. | HIV-1 antigen production as measured in antigen capture ELISA ([1]; 1 μM, day 8 post infection): 0,394 o. D. | HIV-1 antigen production as measured in antigen capture ELISA [1, 5]: 0,694 o. D. | HIV-1 antigen production as measured in antigen capture ELISA [1, 6]: 1,065 o. D. | HIV-1 antigen production as measured in antigen capture ELISA ([1]; 10 μM, day 1 post infection): 0,061 o. D. | HIV-1 antigen production as measured in antigen capture ELISA ([1]; 10 μM, day 2 post infection): 0,075 o. D. | HIV-1 antigen production as measured in antigen capture ELISA ([1]; 10 μM, day 3 post infection): 0,069 o. D. | HIV-1 antigen production as measured in antigen capture ELISA ([1]; 10 μM, day 4 post infection): 0,044 o. D. | HIV-1 antigen production as measured in antigen capture ELISA ([1]; 10 μM, day 5 post infection): 0,064 o. D. | HIV-1 antigen production as measured in antigen capture ELISA ([1]; 10 μM, day 6 post infection): 0,140 o. D. | HIV-1 antigen production as measured in antigen capture ELISA ([1]; 10 μM, day 7 post infection): 0,256 o. D. | HIV-1 antigen production as measured in antigen capture ELISA ([1]; 10 μM, day 8 post infection): 0,499 o. D. | HIV-1 antigen production as measured in antigen capture ELISA [1, 7]: 0,727 o. D. | HIV-1 antigen production as measured in antigen capture ELISA [1, 8]: 1,003 o. D. | HIV-1 antigen production as measured in antigen capture ELISA ([1]; 100 μM, day 1 post infection): 0,068 o. D. | HIV-1 antigen production as measured in antigen capture ELISA ([1]; 100 μM, day 2 post infection): 0,064 o. D. | HIV-1 antigen production as measured in antigen capture ELISA ([1]; 100 μM, day 3 post infection): 0,065 o. D. | HIV-1 antigen production as measured in antigen capture ELISA ([1]; 100 μM, day 4 post infection): 0,053 o. D. | HIV-1 antigen production as measured in antigen capture ELISA ([1]; 100 μM, day 5 post infection): 0,057 o. D. | HIV-1 antigen production as measured in antigen capture ELISA ([1]; 100 μM, day 6 post infection): 0,070 o. D. | HIV-1 antigen production as measured in antigen capture ELISA ([1]; 100 μM, day 7 post infection): 0,361 o. D. | HIV-1 antigen production as measured in antigen capture ELISA ([1]; 100 μM, day 8 post infection): 0,374 o. D. | HIV-1 antigen production as measured in antigen capture ELISA [1, 9]: 0,915 o. D. | HIV-1 antigen production as measured in antigen capture ELISA [1, 10]: 1,013 o. D. | HIV-1 antigen production as measured in antigen capture ELISA ([1]; 1000 μM, day 1 post infection): 0,087 o. D. | HIV-1 antigen production as measured in antigen capture ELISA ([1]; 1000 μM, day 2 post infection): 0,058 o. D. | HIV-1 antigen production as measured in antigen capture ELISA ([1]; 1000 μM, day 3 post infection): 0,073 o. D. | HIV-1 antigen production as measured in antigen capture ELISA ([1]; 1000 μM, day 4 post infection): 0,054 o. D. | HIV-1 antigen production as measured in antigen capture ELISA ([1]; 1000 μM, day 5 post infection): 0,056 o. D. | HIV-1 antigen production as measured in antigen capture ELISA ([1]; 1000 μM, day 6 post infection): 0,102 o. D. | HIV-1 antigen production as measured in antigen capture ELISA ([1]; 1000 μM, day 7 post infection): 0,286 o. D. | HIV-1 antigen production as measured in antigen capture ELISA ([1]; 1000 μM, day 8 post infection): 0,597 o. D. | HIV-1 antigen production as measured in antigen capture ELISA [1, 11]: 0,899 o. D. | HIV-1 antigen production as measured in antigen capture ELISA [1, 12]: 1,054 o. D. | Reverse Transkriptase Determination ([2]; 0,1 μM, day 7 post infection): 3929 epm/ml | Reverse Transkriptase Determination ([2]; 0,1 μM, day 8 post infection): 6914 epm/ml | Reverse Transkriptase Determination [2, 3]: 14455 epm/ml | Reverse Transkriptase Determination [2, 4]: 137470 epm/ml | Reverse Transkriptase Determination ([2]; 1 μM, day 7 post infection): 4041 epm/ml | Reverse Transkriptase Determination ([2]; 1 μM, day 8 post infection): 7460 epm/ml | Reverse Transkriptase Determination [2, 5]: 9502 epm/ml | Reverse Transkriptase Determination [2, 6]: 163130 epm/ml | Reverse Transkriptase Determination ([2]; 10 μM, day 7 post infection): 4615 epm/ml | Reverse Transkriptase Determination ([2]; 10 μM, day 8 post infection): 5381 epm/ml | Reverse Transkriptase Determination [2, 7]: 12517 epm/ml | Reverse Transkriptase Determination [2, 8]: 117910 epm/ml | Reverse Transkriptase Determination ([2]; 100 μM, day 7 post infection): 5378 epm/ml | Reverse Transkriptase Determination ([2]; 100 μM, day 8 post infection): 6407 epm/ml | Reverse Transkriptase Determination [2, 9]: 12893 epm/ml | Reverse Transkriptase Determination [2, 10]: 142240 epm/ml | Reverse Transkriptase Determination ([2]; 1000 μM, day 7 post infection): 1529 epm/ml | Reverse Transkriptase Determination ([2]; 1000 μM, day 8 post infection): 2121 epm/ml | Reverse Transkriptase Determination [2, 11]: 1550 epm/ml | Reverse Transkriptase Determination [2, 12]: 104660 epm/ml

From patent publication US5674979A, “Agent for inhibiting symmetrical proteins, in particular enzymes” (priority 1989, dated 1997)
